According to patent US20100267635A1, “USE OF PROTEASE INHIBITORS AND GRF MOLECULES IN COMBINATION THERAPY” (THERATECHONOLGIES INC., priority 2009, published 2010):

Assays:
[1] = Two-way crossover drug interaction study: plasma ritonavir PK with (Treatment A) and without (Treatment B) TH9507; type: in vivo, human
Experimental: (§1) 2 ml of TH9507 (1 mg/ml injectable solution) was administered by subcutaneous injection under fasting conditions once daily for 7 consecutive days (daily dose of 2 mg TH9507).
(§2) N=32 healthy adult (male and female) subjects were enrolled. Dosing occurred in two groups.
(§3) PK/statistics: PK parameters were calculated using standard noncompartmental approaches.
(§4) The 90% CIs for the Treatment A/Treatment B LSM ratios for AUC0-t.

[2] = Plasma TH9507 PK (ELISA) on day 6 in the ritonavir interaction study; type: in vivo; settings: both sexes, human, sc, 2 mg s.c. once daily
Experimental: as §1, §2, §3

CYP3A = assay: Impact of TH9507 on CYP3A activity, concluded from the ritonavir PK interaction study; type: in vivo, human; settings: 2 mg TH9507 s.c. days 1 to 7, ritonavir as probe
Source text: as §4

CC(C)c1nc(CN(C)C(=O)N[C@H](C(=O)N[C@@H](Cc2ccccc2)C[C@H](O)[C@H](Cc2ccccc2)NC(=O)OCc2cncs2)C(C)C)cs1 [Ritonavir, 1,3-thiazol-5-ylmethyl N-[(2S,3S,5S)-3-hydroxy-5-[(2S)-3-methyl-2-{[methyl({[2-(propan-2-yl)-1,3-thiazol-4-yl]methyl})carbamoyl]amino}butanamido]-1,6-diphenylhexan-2-yl]carbamate]
Cmax ([1]; both sexes, human, plasma, oral, 100 mg): 453 ng/mL
AUC(0-inf) ([1]; both sexes, human, plasma, oral, 100 mg, read-out: AUC0-inf Treatment B): 3800 ng·h/mL
AUC(0-t) ([1]; both sexes, human, plasma, oral, 100 mg, read-out: AUC0-t Treatment B): 3720 ng·h/mL
half-life ([1]; both sexes, human, plasma, oral, 100 mg, read-out: T1/2 Treatment B (converted)): 6.26 h
Tmax ([1]; both sexes, human, plasma, oral, 100 mg, read-out: Tmax Treatment B): 4.5 h
Tmax ([1]; both sexes, human, plasma, oral, read-out: Tmax Treatment A): 4.5 h
T1/2 Treatment A ([1]; plasma ritonavir, with TH9507, arithmetic mean (% CV)): 5.72 (23.0) h

CC/C=C/CC(=O)N[C@@H](Cc1ccc(O)cc1)C(=O)N[C@@H](C)C(=O)N[C@@H](CC(=O)O)C(=O)N[C@@H](C)C(=O)N[C@H](C(=O)N[C@@H](Cc1ccccc1)C(=O)N[C@H](C(=O)N[C@@H](CC(N)=O)C(=O)N[C@@H](CO)C(=O)N[C@@H](Cc1ccc(O)cc1)C(=O)N[C@@H](CCCNC(=N)N)C(=O)N[C@@H](CCCCN)C(=O)N[C@H](C(=O)N[C@@H](CC(C)C)C(=O)NCC(=O)N[C@@H](CCC(N)=O)C(=O)N[C@@H](CC(C)C)C(=O)N[C@@H](CO)C(=O)N[C@@H](C)C(=O)N[C@@H](CCCNC(=N)N)C(=O)N[C@@H](CCCCN)C(=O)N[C@@H](CC(C)C)C(=O)N[C@@H](CC(C)C)C(=O)N[C@@H](CCC(N)=O)C(=O)N[C@@H](CC(=O)O)C(=O)N[C@H](C(=O)N[C@@H](CCSC)C(=O)N[C@@H](CO)C(=O)N[C@@H](CCCNC(=N)N)C(=O)N[C@@H](CCC(N)=O)C(=O)N[C@@H](CCC(N)=O)C(=O)NCC(=O)N[C@@H](CCC(=O)O)C(=O)N[C@@H](CO)C(=O)N[C@@H](CC(N)=O)C(=O)N[C@@H](CCC(N)=O)C(=O)N[C@@H](CCC(=O)O)C(=O)N[C@@H](CCCNC(=N)N)C(=O)NCC(=O)N[C@@H](C)C(=O)N[C@@H](CCCNC(=N)N)C(=O)N[C@@H](C)C(=O)N[C@@H](CCCNC(=N)N)C(=O)N[C@@H](CC(C)C)C(N)=O)[C@@H](C)CC)C(C)C)[C@@H](C)O)[C@@H](C)CC [TH9507, (hexenoyl trans-3)hGRF(1-44)NH2]
half-life ([2]; arithmetic mean): 6.6 min
AUC(0-inf) ([2]; geometric mean): 0.79 ng·h/mL
AUC(0-t) ([2]; geometric mean): 0.657 ng·h/mL
Cmax ([2]; geometric mean): 2.7 ng/mL
Tmax ([2]; median): 9 min
impact on CYP3A activity (CYP3A): not significant
